Where a name gives a salt, the structure may show the parent alone. Read-outs that look alike come from different tables or passages of the source. Bridge positions count the residues as written; N and C are the ends. Square brackets hold non-standard residues; d marks the D form. Peptide text beside a SMILES is read from it. * marks the point of attachment. X1 = CC[C@H](C)CCCCC(=O)*; Dab = NCC[C@H](N)C(=O)O
Assays:
A. baumannii (CS01) = assay: Neutropenic mouse thigh infection model, bacterial counts after PMB; type: in vivo, Acinetobacter baumannii
Protocol: A clinical strain of A. baumannii (CS01), isolated from a patient with a meningitis (Seville, Spain) before treatment with CST, was used during this study ([López-Rojas et al., 2013]). Before each experiment, the strain was cultured in 5 ml of cation adjusted Muller-Hinton broth II (MHB) (Biomérieux, Marcy-l’Etoile, France) and incubated overnight at 37 ± 2°C with constant shaking (150–170 rpm). This overnight suspension was diluted 1:50 in MHB and was incubated with constant shaking at 35°C during 2 h until an OD600nm of 0.26 was achieved (Ultrospec10, Biochrom Ltd., Cambridge, United Kingdom), corresponding to a bacterial count of 10^8 CFU/ml in exponential growth phase. The bacterial suspension was centrifuged (3,000 rpm, 6 min), broth was removed and replaced by the same volume of sterile saline solution. This suspension was then diluted to obtain inocula of 10^7 and 10^6 CFU/ml. Samples of the inoculation solutions were serially diluted on saline, plated on Muller-Hinton agar plates (Biomérieux, Marcy-l’Etoile, France) and incubated overnight at 37°C.
Animal experiments were carried out according to the EC Directive 2010/63/EU. They were approved by the local ethics committee (COMETHEA) and registered by the French Ministry of Higher Education and Research (approval numbers: 2019022216097190 and 2017072415099072). Five-week-old male Swiss RjOrl mice (n = 296) weighing 34 ± 2 g (mean ± standard deviation [SD]) were obtained from Janvier Labs (Saint-Berthevin, France). All animals were acclimatized in ventilated racks in a temperature-regulated environment with a 12 h light-dark cycle, with free access to food and water for a minimum of 5 days before the beginning of the experiment. Neutropenia was induced by intraperitoneal administrations of cyclophosphamide at 150 and 100 mg/kg, 4 days and 1 day prior to experimental infection, respectively ([Landersdorfer et al., 2018]). Thigh infection was induced by intramuscular administration of 0.1 ml of a bacterial suspension of 10^6, 10^7 or 10^8 CFU/ml (corresponding to 10^5, 10^6 and 10^7 CFU/thigh, respectively), into one of the posterior thigh muscles. Thus, three groups of mice were distinguished according to the inoculum injected (n = 76, 146 and 74 for 10^5, 10^6 and 10^7 CFU/thigh, respectively) Each group was divided into two subgroups: treated (n = 48, 116 and 45 for 10^5, 10^6 and 10^7 CFU/thigh, respectively) and control mice (n = 28, 30 and 29 for 10^5, 10^6 and 10^7 CFU/thigh, respectively).
Two hours after bacterial inoculation, mice received either a single subcutaneous administration of PMB (1, 15 or 40 mg/kg for mice infected with 10^6 and 10^7 CFU/thigh, and 15 or 40 mg/kg for mice infected with 10^5 CFU/thigh), or a subcutaneous administration of saline solution (control group).
Mice (n = 240) were sacrificed at 6 different time points: just prior to the start of the therapy (0 h) and at 2, 4, 6, 8 and 24 h after PMB administration. A total of 3-6 mice were sacrificed at each time point. Thigh muscles were collected and homogenized with 1 ml of sterile saline solution using potters Elvehjem-type tissue grinders (Thermo Fischer Scientific, Illkirch-Graffenstaden, France). Homogenates were serially diluted in saline, plated on Muller-Hinton agar plates and incubated overnight at 37°C. Bacterial colonies were counted and expressed as log10 numbers of CFU/thigh. The lower limit of quantification (LOQ) was set to 800 CFU/ml corresponding to 2.9 log10 CFU/thigh.

A. baumannii = conditions: ref Akrong et al., 2021, cited from earlier work; for increase of in vitro IK-HL: starting inoculum from 10^5 to 10^7 CFU/ml
Description: High bacterial counts may alter antibiotherapy success due to an inoculum effect (IE) ([Chastre and Fagon, 2002]; [Koenig and Truwit, 2006]; [Kalanuria et al., 2014]), corresponding to a reduction of the antibiotic activity as bacterial count increases ([Harada et al., 2014]; [Lenhard and Bulman, 2019]). This phenomenon has been described in vitro for ß-lactam antibiotics used against ß-lactamases-producing bacteria such as Escherichia coli and Klebsiella pneumoniae ([Bedenić et al., 2001]; [Harada et al., 2014]; [Smith and Kirby, 2018]; [Lenhard and Bulman, 2019]). It has also been reported i ... || An innovative aspect of this study was the refinement of a PKPD model, based on the model developed after in vitro TK experiments conducted with A. baumannii and PMB ([Akrong et al., 2021]). […] The different growth behavior between in vitro and in vivo has been associated in literature ... || In both in vitro and in vivo PKPD models, a decrease in PMB killing effect was related to the baseline inoculum and was modeled either as a decrease of the in vivo PMB killing rate constant (kslope) or as an increase of the in vitro half-maximal effective concentration of PMB (EC50), making PMB IE difficult to compare between in vitro and in vivo. In vivo IK-HL were derived from Equation 5 for each starting inoculum and various PMB concentrations to better illustrate the consequences of IE on PMB activity (Table 3).

[1] = ultracentrifugation, ref Landersdorfer et al., 2018, cited from earlier work
Description: This discrepancy may be explained by differences in methodology. We used ultra-filtration after correction for non-specific adsorption on membranes to determine unbound fraction individually in infected mice, whereas the previous study used ultracentrifugation and pooled plasma sampled drawn from infected mi ...

Question: With CC[C@H](C)CCCCC(=O)N[C@@H](CCN)C(=O)N[C@H](C(=O)N[C@@H](CCN)C(=O)N[C@H]1CCNC(=O)[C@H]([C@@H](C)O)NC(=O)[C@H](CCN)NC(=O)[C@H](CCN)NC(=O)[C@H](CC(C)C)NC(=O)[C@@H](Cc2ccccc2)NC(=O)[C@H](CCN)NC1=O)[C@@H](C)O [PMB, Polymyxin B sulfate] (X1-[Dab]T[Dab][Dab][Dab][dF]L[Dab][Dab]T; lactam 4-C) as the molecule, how does the “efficacy of PMB” value (A. baumannii (CS01); 15 mg/kg SC, two highest inocula (10^6 and 10^7 CFU/thigh)) read?
Answer: moderate efficacy

Question: And the bacterial load reduction (A. baumannii (CS01); 24 h after 15 mg/kg PMB SC, inoculum 10^5 CFU/thigh)?
Answer: 2.6 ± 1.2 log10 CFU/thigh

Question: And the bacterial load reduction (A. baumannii (CS01); 24 h after 40 mg/kg PMB SC, inoculum 10^5 CFU/thigh)?
Answer: 2.5 ± 2.3 log10 CFU/thigh

Question: What about the bacterial load reduction (A. baumannii (CS01); 24 h after 40 mg/kg PMB SC, inoculum 10^6 CFU/thigh) of the same molecule?
Answer: 3.5 ± 0.9 log10 CFU/thigh

Question: What about the bacterial load reduction (A. baumannii (CS01); 24 h after 40 mg/kg PMB SC, inoculum 10^7 CFU/thigh) of the same molecule?
Answer: 2.1 ± 1.4 log10 CFU/thigh

Question: And the “bacterial counts compared with control group” value (A. baumannii (CS01); PMB 1 mg/kg single SC dose, data not shown)?
Answer: no differences in bacterial counts with the control group

Question: What about the “in vitro IK-HL” value (A. baumannii; PMB 0.25 mg/L, starting inoculum 10^5 CFU/ml) of the same molecule?
Answer: 10 min

Question: And the “in vitro IK-HL” value (A. baumannii; PMB 0.25 mg/L, starting inoculum 10^7 CFU/ml)?
Answer: 24 min

Question: What about the “increase of in vitro IK-HL” value (A. baumannii; PMB 0.25 mg/L) of the same molecule?
Answer: 140%

Question: And the “in vitro IK-HL” value (A. baumannii; PMB 4 mg/L, starting inoculum 10^5 CFU/ml)?
Answer: 5 min

Question: What about the “in vitro IK-HL” value (A. baumannii; PMB 4 mg/L, starting inoculum 10^7 CFU/ml) of the same molecule?
Answer: 8 min

Question: What about the “increase of in vitro IK-HL” value (A. baumannii; PMB 4 mg/L) of the same molecule?
Answer: 60%

Question: And the “increase of the PMB concentration to reach 50% of maximal effect (EC50)” value (A. baumannii; initial inoculum increased from 10^5 to 10^8 CFU/ml, static time-kill)?
Answer: 17 fold

Question: What about the plasma protein binding ([1]; mouse plasma, pooled plasma spiked with PMB) of the same molecule?
Answer: ~90%

Question: What about the unbound fraction ([1]; pooled plasma from infected mice spiked with PMB) of the same molecule?
Answer: 0.086

Reference: paper PMC8966651, “PKPD Modeling of the Inoculum Effect of Acinetobacter baumannii on Polymyxin B in vivo” (Frontiers in Pharmacology, 2022)
